Target: T1, ERO1β (Homo sapiens, UniProt Q86YB8)
T1 construct: endogenous in cells; host or cells: PC-9
T1 sequence (Q86YB8 34-467): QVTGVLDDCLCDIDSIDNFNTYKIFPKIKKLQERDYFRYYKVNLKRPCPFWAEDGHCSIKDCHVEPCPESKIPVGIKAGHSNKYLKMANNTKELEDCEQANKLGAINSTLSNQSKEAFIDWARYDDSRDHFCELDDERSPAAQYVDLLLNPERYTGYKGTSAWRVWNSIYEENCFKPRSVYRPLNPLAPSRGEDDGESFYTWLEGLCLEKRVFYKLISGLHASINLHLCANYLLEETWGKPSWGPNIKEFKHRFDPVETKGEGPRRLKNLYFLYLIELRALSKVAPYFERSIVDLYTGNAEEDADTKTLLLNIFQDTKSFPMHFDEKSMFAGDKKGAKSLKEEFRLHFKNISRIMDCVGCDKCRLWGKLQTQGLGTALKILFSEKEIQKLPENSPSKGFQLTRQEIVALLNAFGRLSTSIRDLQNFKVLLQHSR
Assay: Cellular thermal shift assay (CETSA) in PC-9 cells, ERO1β
Type: cell-based
Settings: 100 μM
Description: To date activity of T151742 towards other flavoenzymes has not been identified at this time. We utilized the Cellular Thermal Shift Assay (CETSA) to determine target engagement of T151742 in vitro using the non-small cell lung cancer (NSCLC) cell line PC-9. The EGFR driven PC-9 cell line was chosen as new treatment strategies are needed in EGFR driven NSCLC as most patients relapse and become resistant to current targeted therapies with development of further mutations such as T790M, C797S as well as emergence of EGFR independent tumors^42, 43. […] First, we determined the aggregation temperature (Tagg) of ERO1α, ERO1β, and LSD-1, which are all FAD dependent enzymes and potential in vitro targets of T15742. […]
Upon addition of T151742, Tagg was quantified for ERO1α, ERO1β, and LSD-1. Quantification of the average of n=3 independent experiments based on western blot analysis for ERO1α, ERO1β, and LSD-1. […] Cellular viability was determined by MTT assay. n=3 independent experiments performed in quadruplicates. ****p<0.0001; by two-way ANOVA.
Cell Lines: PC-9 cell line used was obtained from Sigma Aldrich and grown in RPMI 1640 medium with 10% fetal bovine serum and 1% penicillin/streptomycin. […] Plate was then read on the BioTek Cytation 5 at 530/590 nm. […]

For `CN(C)c1ccc(/C=C2\Oc3cc(O)ccc3C2=O)cc1` [Compound T151742], the “change of Tagg for ERO1β” value was “did not change”.
